Reference: paper PMC9961069 (Metabolites, 2023)

Key:
[1] = test system: MDA-MB468, MDA-MB-231, and MCF-7 breast cancer cell lines; assay: Dose-response viability in breast cancer cell lines (statements not split by line); format: cell-based, Human; settings: 0–100 μM, 72 h
Description: The incorporation and metabolism of resazurin to resorufin was used to monitor cell viability. MDA-MB-468, MCF7, and MDA-MB-231 cells were grown in 96-well plates with a total of 5000 cells per well in a total volume of 180 μL for 24 h, as described above. After 24 h of growth, cells were treated with increasing concentrations of compounds (0.0457–100 μM) for 72 h. A vehicle control was also performed. […] The volume of treatment added to each well was 20 μL. For folinic acid rescue experiments, 5000 cells were treated with 10 μM compound with or without 300 μg/mL folinic acid (Supelco). After 72 h of treatment, resazurin was added to a final concentration of 44 μM, and cells were incubated for an additional 4 h at 37 °C. The fluorescence of resorufin was monitored on a Synergy MX microplate reader (BioTek) using an excitation wavelength of 540 nm and an emission wavelength of 600 nm. Percent viability relative to the DMSO control was determined. Each treatment was performed in triplicate, and each individual experiment was repeated three times (n = 3).

[2] = test system: T1, thymidine phosphorylase (TP) in MDA-MB-468 cell lysates; assay: Lysate CETSA for thymidine phosphorylase; format: binding, Human; settings: 10 μM, 65 °C, n = 1
T1 construct: MDA-MB-468 lysates were treated with 10 μM each; endogenous in cells; host or cells: MDA-MB-468

SMILES | Phenotypic response in viability dose-response [1] | TP stabilization by CETSA [2]
CC1(C)N=C(N)N=C(N)N1c1ccc(CCCCc2ccc(S(=O)(=O)F)cc2)c(Cl)c1 [compound 127159] | little effect at low concentrations and cytotoxicity at higher concentrations | –
CCc1nc(N)nc(N)c1-c1ccc(Cl)cc1 [Pyr, Pyrimethamine] | – | no stabilization of TP was detected
